Assay results from patent publication US20240252638A1, “INDUCER FOR REPROGRAMMING T CELL INTO NK-LIKE CELL AND APPLICATION OF INDUCER” (ZHAOTAI IMMUGENE BIOMEDICINE (HONG KONG) LIMITED, priority 2021, published 2024).

Assays:
[1] = system: primary T cells in human umbilical cord blood; experiment: Detection of phenotypes of reprogrammed T cells through flow cytometry (NKp30/NKp46 expression); type: cell-based; conditions: for expression rate of NKp30 in CD4 T cells: drug concentrations of Table 1 (DAC 0.2 μM, GSK-3484862 2 μM, Mocetinostat 0.2 μM), DMSO group approximately 7.74%; for expression rate of NKp46 in CD8 T cells: DMSO group approximately 0.26%; for expression rate of NKp30 in CD8 T cells: DMSO group approximately 12.2%; for expression of NKp46 and NKp30 in CD4 and CD8 among induced T cells compared with DMSO: induced by a single inhibitor until Day5; for expression of NKp46 and NKp30 in CD4 and CD8 among induced T cells compared with DMSO / induction of T cells to reprogram into NK-like cells: concentrations of Table 1; for induction of T cells to reprogram into NK-like cells: induced until Day5
Excerpt: In this example, umbilical cord blood mononuclear cells (UCBMCs) were separated from the umbilical cord blood through Ficoll-hypaque (polysucrose-meglumine diatrizoate) density gradient centrifugation, 4×10^7 CD3 positive UCBMCs were taken and cultured overnight with a cell density of 2×10^6 cells/mL, remaining UCBMCs were frozen, and T cells were sorted by the Pan T cell isolation kit and cultured for a period of time to obtain ≥4×10^7 CD3 positive T cells with a viability rate of ≥70% and without contamination by exogenous microorganisms such as bacteria, fungi and mycoplasmas.
(1) T cells activated by TransAct for 36 h were taken and centrifuged at 300 g for 5 min, the T cells were resuspended with an IMDM+5% FBS+1% double antibody (a 100×penicillin-streptomycin mixed solution)+IL2 (300 U), and a T cell density was adjusted to (2−3)×10^5 cells/mL.
(2) Groups of small molecule inhibitor drugs were added to the resuspended T cells, respectively. Half of media were changed every day, and extra new drugs were added according to volumes obtained after the media were changed. A day when the drugs were initially added was denoted as Day0, and when the drugs continued to be added until Day5, the mixtures were centrifuged at 300 g for 5 min, and the media were changed. Then, the cells continued to be cultured with an IMDM+5% FBS+1% double antibody (a 100×penicillin-streptomycin mixed solution).
(1) 200 μL each of the T cells induced by DAC until Day6, the T cells induced by GSK-3484862 until Day 6, the T cells co-induced by DAC and Mocetinostat until Day6, the T cells co-induced by GSK-3484862 and Mocetinostat until Day6 and the untreated T cells were taken and centrifuged at 400 g for 4 min. After supernatant was discarded, 50 μL phosphate buffer (PBS) was added to resuspend the cells. Then, 0.5 μL each of CD3 PE-Cy7, CD4 APC-Cy7, CD8 FITC, NKp30 PE and NKp46 APC were added to each of the mixtures and incubated for 30 min at 4° C. in the dark, 500 μL PBS was added to dilute the antibody and centrifuged at 400 g for 4 min, supernatant was carefully discarded, and 300 μL PBS was added to resuspend the cells, transferred to a flow tube and loaded on a flow cytometer.
(2) Data analysis was performed by BD-flowcyto analysis software, and 10000 cells were collected in each tube. The appearance of a significant increase in NKp-30 and the appearance of an NKp46-positive cell population were used as signs of successful reprogramming, and a percentage of positive T cells was calculated.
In addition, the T cells induced by GSK-3484862 until Day5, the T cells induced by Tazemetostat until Day5, the T cells induced by GSK126 until Day5, the T cells co-induced by Tazemetostat and GSK-3484862 until Day5, the T cells co-induced by GSK-3484862 and GSK126 until Day5 and the untreated T cells were taken and subjected to the same operations, and phenotypes of the reprogrammed T cells were identified through flow cytometry. The results are shown in FIGS. 9A, 9B, 10A, 10B, 11A, 11B, 12A, 12B, 13A, 13B, 14A and 14B.

[2] = system: reprogrammed T cells co-cultured with K562; experiment: Secretion of cytokines IFN-γ and granzyme B by reprogrammed T cells co-cultured with K562 (ELISA); type: cell-based, human; conditions: co-cultured with K562 for 48 h, supernatant
Method: The T cells induced by DAC, the T cells induced by GSK-3484862, the T cells co-induced by DAC and Mocetinostat, the T cells co-induced by GSK-3484862 and Mocetinostat and the T cells treated by DMSO were co-cultured with human chronic myeloid leukemia cells K562 for 48 h, respectively, and expression levels of cytokines IFN-γ and a granzyme B in supernatant were detected through ELISA.

[3] = system: K562 cells (human chronic myeloid leukemia cells); experiment: In vitro killing detection of reprogrammed T cells (luciferase); type: cell-based; conditions: effector-target ratios 16:1 to 1:4, co-cultured 24 h, vs T cells treated by DMSO
Excerpt: (1) The T cells induced by GSK-3484862, the T cells induced by DAC, the T cells induced by Mocetinostat, the T cells co-induced by GSK-3484862 and Mocetinostat, the T cells co-induced by DAC and Mocetinostat and the T cells treated by DMSO were mixed with 1×10^4 K562 cells (human chronic myeloid leukemia cells) according to different effector-target ratios (16:1, 8:1, 4:1, 2:1, 1:1, 1:2 and 1:4), respectively, and added to a 96-well cell culture plate. Three duplicate wells were set for each group, and a group with the addition of tumor cells alone was set as a positive control. After centrifugation at 250×g for 5 min, the cells were placed in a 5% CO2 incubator at 37° C. and co-cultured for 24 h.
(2) After 24 h, 100 μL/well luciferase substrate (1×) was added to the 96-well cell culture plate, and the cells were resuspended and uniformly mixed. RLU (Relative light units) were immediately measured by a multifunctional microplate reader for 0.1 s. A killing proportion calculation formula of a quantitative killing efficiency assessment method using a luciferase is as follows:
100%×(control well reading-experimental well reading)/control well reading (blank group (without the addition of the cells) reading may be ignored).
In addition, according to the same method, the T cells induced by GSK-3484862, the T cells induced by Tazemetostat, the T cells induced by GSK126, the T cells co-induced by GSK-3484862 and Tazemetostat and the T cells co-induced by GSK-3484862 and GSK-126 were separately used and the T cells treated by DMSO was used as a control to detect killing abilities of the reprogrammed T cells against K562 cells.

[4] = T cells induced until Day6, drug concentrations of Table 1

| SMILES | expression rate of NKp46 in CD4 T cells [1, 4] | expression rate of NKp30 in CD4 T cells ([1]; T cells induced until Day6) | expression rate of NKp46 in CD8 T cells [1, 4] | expression rate of NKp30 in CD8 T cells [1, 4] | expression of NKp46 and NKp30 in CD4 and CD8 among induced T cells compared with DMSO [1] | induction of T cells to reprogram into NK-like cells [1] | IFN-γ and granzyme B secreted by induced T cells (immune effect) [2] | in vitro killing of K562 by induced T cells [3] |
| --- | --- | --- | --- | --- | --- | --- | --- | --- |
| CCc1c(C#N)c(SC(C(N)=O)c2ccccc2)nc(N(C)C)c1C#N (stereo not drawn) [GSK-3484862] | approximately 5.16% | approximately 81.4% | approximately 21.4% | approximately 50.8% | significantly expressed | can induce the T cells to reprogram into NK-like cells | produce an immune effect | effectively kill |
| CC[C@H](C)n1cc(C)c2c(C(=O)NCc3c(C)cc(C)[nH]c3=O)cc(-c3ccc(N4CCNCC4)nc3)cc21 [GSK126] | – | – | – | – | significantly expressed | can induce the T cells to reprogram into NK-like cells | – | effectively kill |
| Nc1ccccc1NC(=O)c1ccc(CNc2nccc(-c3cccnc3)n2)cc1 [Mocetinostat] | – | – | – | – | – | – | – | effectively kill |
| Nc1ncn([C@H]2C[C@H](O)[C@@H](CO)O2)c(=O)n1 [DAC, decitabine] | – | approximately 83.2% | approximately 11.2% | approximately 60.5% | – | – | – | – |
